Common to all, as to format: cell-based
Assay [1] deals with SW480 colon cancer cells. As to the kind of experiment: Cell viability assay (CellTiter-Blue), four days. The note with it: Homo sapiens, 96 h; for pEC50: CellTiter-Blue cell viability; for inhibition at 10 µM: read-out: percent inhibition at 10 μM (given for EC50 of >10 μM). The method in brief: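 SW480 cells (~2×10^3 per well) were exposed to compound for four days at 37 °C/5% CO2, using 8-point 1:3 dilutions from 10 μM to 0.0045 μM in duplicate. Viability was read by resazurin reduction (CellTiter-Blue, ~3 h, Ex 560/Em 590 nm). EC50 came from non-linear regression; above 10 μM, percent inhibition at 10 μM is given.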
Background: The colour change of resazurin is a common sign of viable cells or microbes.

Assay [2] deals with primary human mesenchymal stem cells (hMSCs). As to the kind of experiment: Induction of chondrogenesis in hMSCs (nodule area, Rhodamine B / Nile Red). To be noted: TGF-β3 as positive control; for Emax: read-out: Max. Activity as % TGF-β3 activity; for EC50: concentration required to induce 50% levels of chondrogenesis, read-out: Conc (nM) of 50% TGF-β3 activity. The method in brief:
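Primary hMSCs (passage 3–6) in incomplete chondrogenic induction medium were treated 6 days at 37° C. with 1:3 dilutions (2700–10 nM in 96-well or 5000–2.2 nM in 384-well; 0.03% DMSO). Rhodamine B/Nile Red-stained nodule area was imaged, normalized to DMSO wells, and EC50 was set against TGF-β3 (10 ng/mL).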

For assay [3], the system named is IL-6 in human monocyte cell line (THP-1 cells). Kind of assay: IL-6 inhibition in LPS-stimulated THP-1 cells (HTRF). The note with it: IL-6 in LPS-stimulated THP-1 cells; for pEC50: HTRF; for inhibition at 10 µM: read-out: percent inhibition in brackets beside EC50 >10 μM. In a few lines: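 THP-1 cells, serum-reduced (1% FBS) for 24 h, were preincubated with compound (10-point 1:3 series from 10 μM, 0.1% DMSO) for 2 h, then stimulated with 500 ng/mL LPS for 22 h at 37° C. IL-6 was read by HTRF (665/620 nm ratio) and normalized to DMSO. EC50 from four-parameter fit; % inhibition at 10 μM given if EC50 >10 μM.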

pEC50: −log10 of the molar value.

Take `CN(C)Cc1cncc(-c2ccc3[nH]nc(-c4nc5c(-c6cccc(F)c6)nccc5[nH]4)c3n2)c1` [Compound 13, 1-(5-(3-(4-(3-Fluorophenyl)-1H-imidazo[4,5-c]pyridin-2-yl)-1H-pyrazolo [4,3-b]pyridin-5-yl)pyridin-3-yl)-N,N-dimethylmethanamine]: the negative logarithm of the EC50 (pEC50) is 6.19 in assay [1] and 5.42 in assay [3]. The Emax in assay [2] worked out at 76%. Further, in assay [2], the EC50 is 30 nM.

For the compound `Cc1ccc(-c2nccc3[nH]c(-c4n[nH]c5ccc(-c6cncc(NC(=O)C(C)C)c6)nc45)nc23)s1` [Compound 401, N-(5-(3-(4-(5-Methylthiophen-2-yl)-1H-imidazo[4,5-c]pyridin-2-yl)-1H-pyrazolo [4,3-b]pyridin-5-yl)pyridin-3-yl)isobutyramide], in assay [1], the inhibition at 10 µM is 2.5% and the pEC50 was under 5.00. Moreover, in assay [2], the Emax was found to be 56% and the EC50 worked out at 1670 nM. In assay [3], the negative logarithm of the EC50 (pEC50) is under 5.00 and the inhibition at 10 µM came out at 0%.

`COc1cncc(-c2ccc3[nH]nc(-c4nc5c(-c6cccc(F)c6)nccc5[nH]4)c3n2)c1` [Compound 516, 3-(4-(3-Fluorophenyl)-1H-imidazo[4,5-c]pyridin-2-yl)-5-(5-methoxypyridin-3-yl)-1H-pyrazolo[4,3-b]pyridine] showed a pEC50 in assay [1] of 6.49. Moreover, in assay [2], the Emax stood at 60% and the EC50 came to 21 nM. Also, in assay [3], the pEC50 was under 5.00 and the inhibition at 10 µM stood at 25.1%.

Regarding `CN(C)Cc1cncc(-c2ccc3[nH]nc(-c4nc5c(-c6cccs6)nccc5[nH]4)c3n2)c1` [Compound 349, N,N-dimethyl-1-(5-(3-(4-(thiophen-2-yl)-1H-imidazo[4,5-c]pyridin-2-yl)-1H-pyrazolo[4,3-b]pyridin-5-yl)pyridin-3-yl)methanamine], the pEC50 in assay [1] was 5.90. In assay [2], the Emax came to 75% and the EC50 stood at 10 nM. Besides, in assay [3], the negative-log EC50 (pEC50) is under 5.00 and the inhibition at 10 µM came out at 0%.

For `CC(C)Nc1cncc(-c2ccc3[nH]nc(-c4nc5c(-c6cc(F)cc(NCCN(C)C)c6)nccc5[nH]4)c3n2)c1` [Compound 460, N^1-(3-Fluoro-5-(2-(5-(5-(isopropylamino)pyridin-3-yl)-1H-pyrazolo[4,3-b]pyridin-3-yl)-1H-imidazo[4,5-c]pyridin-4-yl)phenyl)-N^2,N^2-dimethylethane-1,2-diamine], the negative logarithm of the EC50 (pEC50) in assay [1] is 6.23. Moreover, in assay [2], the Emax came out at 116% and the EC50 was determined as 30 nM. The pEC50 in assay [3] is 5.90.

With `CCNCc1cncc(-c2ccc3[nH]nc(-c4nc5c(-c6cc(F)cc(NCCN(C)C)c6)nccc5[nH]4)c3n2)c1` [Compound 454, N^1-(3-(2-(5-(5-((Ethylamino)methyl)pyridin-3-yl)-1H-pyrazolo[4,3-b]pyridin-3-yl)-1H-imidazo[4,5-c]pyridin-4-yl)-5-fluorophenyl)-N^2,N^2-dimethylethane-1,2-diamine], the pEC50 is 5.18 in assay [1] and 5.99 in assay [3]. For the same compound, the Emax in assay [2] turned out to be 36%.

`Fc1cccc(-c2nccc3[nH]c(-c4n[nH]c5ccc(-c6cn[nH]c6)nc45)nc23)c1` [Compound 507, 3-(4-(3-Fluorophenyl)-1H-imidazo[4,5-c]pyridin-2-yl)-5-(1H-pyrazol-4-yl)-1H-pyrazolo[4,3-b]pyridine]: the negative logarithm of the EC50 (pEC50) in assay [1] was under 5.00. In assay [2], the Emax turned out to be 70% and the EC50 worked out at 7 nM. For the same compound, in assay [3], the pEC50 is under 5.00 and the inhibition at 10 µM came to 0%.

Consider `CN(C)c1cncc(-c2ccc3[nH]nc(-c4nc5c(-c6cccc(F)c6)nccc5[nH]4)c3n2)c1` [Compound 7], for which, in assay [1], the negative-log EC50 (pEC50) was 6.03. In addition, in assay [2], the Emax amounted to 58% and the EC50 was determined as 900 nM. For the same compound, the negative logarithm of the EC50 (pEC50) in assay [3] is 5.51.

For `Fc1cccc(-c2nccc3[nH]c(-c4n[nH]c5ccc(C6=CCNCC6)nc45)nc23)c1` [Compound 506, 3-(4-(3-Fluorophenyl)-1H-imidazo[4,5-c]pyridin-2-yl)-5-(1,2,3,6-tetrahydropyridin-4-yl)-1H-pyrazolo[4,3-b]pyridine], in assay [1], the inhibition at 10 µM worked out at 0% and the negative logarithm of the EC50 (pEC50) was under 5.00. Besides, in assay [2], the Emax came to 56% and the EC50 came out at 21 nM. Besides, in assay [3], the pEC50 was under 5.00 and the inhibition at 10 µM was determined as 34.6%.

With `Fc1cccc(-c2nccc3[nH]c(-c4n[nH]c5ccc(-c6ccncc6)nc45)nc23)c1` [Compound 18, 3-(4-(3-Fluorophenyl)-1H-imidazo[4,5-c]pyridin-2-yl)-5-(pyridin-4-yl)-1H-pyrazolo[4,3-b]pyridine], the pEC50 in assay [1] is 5.56. In addition, in assay [2], the Emax amounted to 53% and the EC50 turned out to be 2 nM. For the same compound, in assay [3], the negative logarithm of the EC50 (pEC50) is under 5.00 and the inhibition at 10 µM turned out to be 4.6%.

Broadly, the pEC50 is the EC50 on a negative log10 scale, so that one unit is a factor of ten. High values mean a low EC50, low ones a high EC50. By inhibition is commonly meant how much of the control response was suppressed.

The values are drawn from patent publication US10195185B2, “3-(1H-imidazo[4,5-C]pyridin-2-yl)-1H-pyrazolo[4,3-B]pyridines and therapeutic uses thereof” (Samumed, LLC, priority 2015, dated 2019).
